Assay results published in ChEMBL document CHEMBL1146174, “Synthesis of antimicrobial 2,9,10-trisubstituted-6-oxo-7,12-dihydro-chromeno[3,4-b]quinoxalines” (2006).

How the values were obtained:
[1] = system: Fusarium oxysporum; experiment: Antifungal activity against Fusarium oxysporum by measuring zone of inhibition at 100 ug/ml after 48 hrs; type: functional; details: read-out: IZ
[2] = system: Staphylococcus aureus; experiment: Antibacterial activity against Staphylococcus aureus by measuring zone of inhibition at 100 ug/ml after 24 hrs; type: functional; details: read-out: IZ
[3] = system: Escherichia coli; experiment: Antibacterial activity against Escherichia coli by measuring zone of inhibition at 100 ug/ml after 24 hrs; type: functional; details: read-out: IZ
[4] = system: Bacillus subtilis; experiment: Antibacterial activity against Bacillus subtilis by measuring zone of inhibition at 100 ug/ml after 24 hrs; type: functional; details: read-out: IZ
[5] = system: Aspergillus flavus; experiment: Antifungal activity against Aspergillus flavus by measuring zone of inhibition at 100 ug/ml after 48 hrs; type: functional; details: read-out: IZ
[6] = system: Pseudomonas aeruginosa; experiment: Antibacterial activity against Pseudomonas aeruginos by measuring zone of inhibition at 100 ug/ml after 24 hrs; type: functional; details: read-out: IZ
[7] = system: Fusarium oxysporum; experiment: Antifungal activity against Fusarium oxysporum by measuring zone of inhibition at 30 ug after 48 hrs; type: functional, organism-based
[8] = system: Aspergillus flavus; experiment: Antifungal activity against Aspergillus flavus by measuring zone of inhibition at 30 ug after 48 hrs; type: functional, organism-based
[9] = system: Bacillus subtilis; experiment: Antibacterial activity against Bacillus subtilis by measuring zone of inhibition at 30 ug after 24 hrs; type: functional; details: read-out: IZ
[10] = system: Escherichia coli; experiment: Antibacterial activity against Escherichia coli by measuring zone of inhibition at 30 ug after 24 hrs; type: functional; details: read-out: IZ
[11] = system: Staphylococcus aureus; experiment: Antibacterial activity against Staphylococcus aureus by measuring zone of inhibition at 30 ug after 24 hrs; type: functional; details: read-out: IZ
[12] = system: Pseudomonas aeruginosa; experiment: Antibacterial activity against Pseudomonase aeruginosa by measuring zone of inhibition at 30 ug after 24 hrs; type: functional; details: read-out: IZ

Molecule | zone of inhibition at 100 µg/mL [1] | zone of inhibition at 100 µg/mL [2] | zone of inhibition at 100 µg/mL [3] | zone of inhibition at 100 µg/mL [4] | zone of inhibition at 100 µg/mL [5] | zone of inhibition at 100 µg/mL [6] | inhibition zone (IZ) [7] | inhibition zone (IZ) [8] | zone of inhibition at 30 µg/disc [9] | zone of inhibition at 30 µg/disc [10] | zone of inhibition at 30 µg/disc [11] | zone of inhibition at 30 µg/disc [12]
O=c1oc2ccc(F)cc2c2c1Nc1ccccc1N2 | 3 mm | 5 mm | 3 mm | 3 mm | 2 mm | 4 mm | – | – | – | – | – | –
Cc1ccc2oc(=O)c3c(c2c1)Nc1ccccc1N3 | 2 mm | 3 mm | 3 mm | 2 mm | 2 mm | 4 mm | – | – | – | – | – | –
COc1ccc2oc(=O)c3c(c2c1)Nc1cc(C)c(C)cc1N3 | 8 mm | 11 mm | 9 mm | 9 mm | 6 mm | 10 mm | – | – | – | – | – | –
Cc1cc2c(cc1C)Nc1c(c(=O)oc3ccc(F)cc13)N2 | 4 mm | 6 mm | 7 mm | 5 mm | 3 mm | 8 mm | – | – | – | – | – | –
O=c1oc2ccc(Br)cc2c2c1Nc1ccccc1N2 | 5 mm | 8 mm | 5 mm | 4 mm | 4 mm | 6 mm | – | – | – | – | – | –
Cc1cc2c(cc1C)Nc1c(c(=O)oc3ccccc13)N2 | 3 mm | 4 mm | 3 mm | 2 mm | 2 mm | 4 mm | – | – | – | – | – | –
Cc1cc2c(cc1C)Nc1c(c(=O)oc3ccc(Cl)cc13)N2 | 4 mm | 7 mm | 8 mm | 5 mm | 3 mm | 9 mm | – | – | – | – | – | –
NYSTATIN | – | – | – | – | – | – | 8 mm | 9 mm | – | – | – | –
Cc1cc2c(cc1C)Nc1c(c(=O)oc3ccc(Br)cc13)N2 | 5 mm | 9 mm | 6 mm | 7 mm | 4 mm | 7 mm | – | – | – | – | – | –
Cc1cc2c(cc1C)Nc1c(c(=O)oc3ccc([N+](=O)[O-])cc13)N2 | 4 mm | 5 mm | 4 mm | 4 mm | 4 mm | 5 mm | – | – | – | – | – | –
Cc1ccc2oc(=O)c3c(c2c1)Nc1cc(C)c(C)cc1N3 | 4 mm | 5 mm | 4 mm | 3 mm | 2 mm | 5 mm | – | – | – | – | – | –
O=c1oc2ccccc2c2c1Nc1ccccc1N2 | 3 mm | 2 mm | 2 mm | 1 mm | 2 mm | 3 mm | – | – | – | – | – | –
COc1ccc2oc(=O)c3c(c2c1)Nc1ccccc1N3 | 6 mm | 8 mm | 6 mm | 5 mm | 5 mm | 7 mm | – | – | – | – | – | –
CN[C@@H]1[C@H](O[C@H]2[C@H](O[C@H]3[C@H](O)[C@@H](O)[C@H](N=C(N)N)[C@@H](O)[C@@H]3N=C(N)N)O[C@@H](C)[C@]2(O)C=O)O[C@@H](CO)[C@H](O)[C@H]1O [STREPTOMYCIN] | – | – | – | – | – | – | – | – | 10 mm | 11 mm | 12 mm | 10 mm
O=c1oc2ccc([N+](=O)[O-])cc2c2c1Nc1ccccc1N2 | 3 mm | 5 mm | 4 mm | 4 mm | 4 mm | 4 mm | – | – | – | – | – | –
O=c1oc2ccc(Cl)cc2c2c1Nc1ccccc1N2 | 4 mm | 6 mm | 4 mm | 3 mm | 3 mm | 5 mm | – | – | – | – | – | –
